# Measured values: US20250375544A1, “DUAL MODE RADIOTRACER AND -THERAPEUTICS” (TECHNISCHE UNIVERSITÄT MÜNCHEN, priority 2021, published 2025)
# Key:
# [1] = tested on: LNCaP tumor xenograft-bearing CB17-SCID mice; experiment: Biodistribution in LNCaP tumor xenograft-bearing CB17-SCID mice
# [2] = tested on: LNCaP tumor xenograft-bearing CB17-SCID mouse; experiment: Metabolite analysis 1 h p.i. (radio-RP-HPLC of organ and body fluid extracts); type: in vivo, mice
# Procedure: […] (9.64 MBq) was injected into the tail vein of a LNCaP tumor xenograft-bearing CB17-SCID mouse. The animal was sacrificed 1 h p.i. and subjected to the standard procedure for biodistribution studies. In addition, urine was taken from all mice that were investigated in this experiment (8.4-9.0 MBq) and pooled (n=5). Relevant dissected organs (tumor, kidneys, liver) and body fluids (blood and urine) were collected, homogenized if necessary and subjected to mechanochemical as well as solid phase extraction (SPE).
# Four 2 mL LoBind tubes were equipped with steel and ceramic beads from Lysis Tubes W (analytikjena, Jena, Germany) for kidneys, tumor and liver (bisected). 1 mL radioimmunoprecipitation assay (RIPA) buffer containing 2.0 μmol of 2-PMPA was added to each tube and the organs were homogenized with a MM-400 ball mill (Retsch GmbH, Haan, Germany) at 30 Hz for 20 min. Afterwards, the homogenates were transferred to LoBind tubes free from steel and ceramic beads and centrifuged (15,200 rpm, 10 min, 21° C.). The first supernatants were stored, and the precipitates were again subjected to mechanochemical extraction with 1 mL RIPA buffer (2.0 μmol PMPA) at 30 Hz for 20 min. After centrifugation (15,200 rpm, 10 min, 21° C.), also the second supernatants were kept for SPE.
# After cardiac puncture, 1 mL Tracepur®-H2O was directly added to the collected blood sample and centrifuged twice (13,000 rpm, 5 min) to separate the plasma from the blood cells. The precipitate was dissolved in 500 μL Tracepur®-H2O and together with the first supernatant again centrifuged (13,000 rpm, 5 min). Both supernatants were kept for SPE.
# Pooled urine samples were centrifuged (13,000 rpm, 5 min) and the supernatant was directly analyzed via radio-RP-HPLC.
# For solid phase extraction, the supernatants were loaded onto Strata-X cartridges (200 mg), which were preconditioned with 5 mL MeOH and 5 mL H2O (eight cartridges in total, for all organ and blood supernatants). The cartridges were washed with 1 mL Tracepur®-H2O and dried prior to elution. For each cartridge, 750 μL of MeCN/H2O (6/4, 0.1% TFA) were used for elution and the extracts were analyzed via radio-RP-HPLC.
# Besides biodistribution and μSPECT/CT studies, [^177Lu]Lu-11 (tetrazole) was analyzed according to its metabolic stability 1 h p.i. Relevant dissected organs (tumor, kidney, liver) and body fluids (blood and urine) were collected, homogenized if necessary and subjected to extraction of the incorporated activity. […] The respective radio-RP-HPLC analyses of extracts from homogenized organs and body fluids are depicted in FIG. 10.
# LNCaP cells = type: cell-based, human; conditions: 1 h, 37° C., 1.0 nM ^177Lu-compound, normalized to ([^125I]I-BA)KuE
smiles,measurement,setting,value
"CC(C)(C)[Si](F)(c1ccc(C(=O)NCC(NC(=O)CN2CCN(CC(=O)[O-])CCN(CC(=O)[O-])CCN(CC(=O)[O-])CC2)C(=O)NC(CCCCNC(=O)CCC(=O)NCCCC(NC(=O)CCC(NC(=O)NC(CCc2nnn[nH]2)C(=O)O)C(=O)O)C(=O)O)C(=O)O)cc1)C(C)(C)C.[177Lu+3] (stereo not drawn) [[^177Lu]Lu-11, [^177Lu]Lu-Tetrazole Derivative 11]",Biodistribution Adrenals,[1]; 1 h p.i.,0.61 ± 0.42 % ID/g
same,Biodistribution Blood,[1]; 1 h p.i.,1.09 ± 0.30 % ID/g
same,Biodistribution Bone,[1]; 1 h p.i.,0.47 ± 0.44 % ID/g
same,Biodistribution Heart,[1]; 1 h p.i.,0.41 ± 0.04 % ID/g
same,Biodistribution Intestine,[1]; 1 h p.i.,0.67 ± 0.21 % ID/g
same,Biodistribution Kidneys,[1]; 1 h p.i.,33.2±3.8 % ID/g
same,Biodistribution Liver,[1]; 1 h p.i.,0.74 ± 0.17 % ID/g
same,Biodistribution Lung,[1]; 1 h p.i.,1.23 ± 0.27 % ID/g
same,Biodistribution Muscle,[1]; 1 h p.i.,0.15 ± 0.03 % ID/g
same,Biodistribution Pancreas,[1]; 1 h p.i.,0.33 ± 0.11 % ID/g
same,Biodistribution Parotid gland,[1]; 1 h p.i.,0.56 ± 0.08 % ID/g
same,Biodistribution Spleen,[1]; 1 h p.i.,1.04 ± 0.15 % ID/g
same,Biodistribution Stomach,[1]; 1 h p.i.,1.55 ± 1.67 % ID/g
same,Biodistribution Submandibular gland,[1]; 1 h p.i.,0.40 ± 0.05 % ID/g
same,Biodistribution Tumor,[1]; 1 h p.i.,3.40±0.63 % ID/g
same,Ratio Tumor-to-blood,[1]; 1 h p.i.,3.46 ± 1.62
same,Ratio Tumor-to-kidney,[1]; 1 h p.i.,0.10 ± 0.03
same,Ratio Tumor-to-liver,[1]; 1 h p.i.,5.00 ± 2.11
same,Ratio Tumor-to-muscle,[1]; 1 h p.i.,24.9 ± 10.2
same,Ratio Tumor-to-parotid gland,[1]; 1 h p.i.,6.20 ± 1.74
same,Ratio Tumor-to-submandibular gland,[1]; 1 h p.i.,8.74 ± 2.52
same,tumor-to-submandibularis and -parotidea ratios at 1 h p.i. compared to respective values at 24 h p.i.,[1]; 1 h p.i. vs 24 h p.i.,two-fold lower
same,Biodistribution Adrenals,[1]; 24 h p.i.,0.17 ± 0.19 % ID/g
same,Biodistribution Blood,[1]; 24 h p.i.,0.00 ± 0.00 % ID/g
same,Biodistribution Bone,[1]; 24 h p.i.,0.18 ± 0.04 % ID/g
same,Biodistribution Heart,[1]; 24 h p.i.,0.02 ± 0.00 % ID/g
same,Biodistribution Intestine,[1]; 24 h p.i.,0.52 ± 0.68 % ID/g
same,Biodistribution Kidneys,[1]; 24 h p.i.,3.23 ± 0.77 % ID/g
same,Biodistribution Liver,[1]; 24 h p.i.,0.18 ± 0.04 % ID/g
same,Biodistribution Lung,[1]; 24 h p.i.,0.05 ± 0.02 % ID/g
same,Biodistribution Muscle,[1]; 24 h p.i.,0.02 ± 0.01 % ID/g
same,Biodistribution Pancreas,[1]; 24 h p.i.,0.02 ± 0.00 % ID/g
same,Biodistribution Parotid gland,[1]; 24 h p.i.,0.06 ± 0.02 % ID/g
same,Biodistribution Spleen,[1]; 24 h p.i.,0.11 ± 0.03 % ID/g
same,Biodistribution Stomach,[1]; 24 h p.i.,0.12 ± 0.11 % ID/g
same,Biodistribution Submandibular gland,[1]; 24 h p.i.,0.04 ± 0.01 % ID/g
same,Biodistribution Tumor,[1]; 24 h p.i.,0.68 ± 0.16 % ID/g
same,Ratio Tumor-to-blood,[1]; 24 h p.i.,227 ± 50
same,Ratio Tumor-to-kidney,[1]; 24 h p.i.,0.22 ± 0.06
same,Ratio Tumor-to-liver,[1]; 24 h p.i.,3.74 ± 0.50
same,Ratio Tumor-to-muscle,[1]; 24 h p.i.,55.9 ± 24.3
same,Ratio Tumor-to-parotid gland,[1]; 24 h p.i.,12.2 ± 1.7
same,Ratio Tumor-to-submandibular gland,[1]; 24 h p.i.,16.9 ± 2.2
same,factor by which tumor-to-submandibular gland and tumor-to-parotid gland ratios declined,"[1]; 24 h p.i., in comparison to [^177Lu]Lu-PSMA-10",8
same,"metabolite with higher hydrophilicity, amount",[2]; blood,8.5%
same,"metabolite with higher hydrophilicity, amount",[2]; kidney,11.7%
same,metabolite with higher hydrophilicity,[2]; liver homogenate,not detectable
same,"more lipophilic metabolite (tR=20.5 min), amount",[2]; liver homogenate,28.0%
same,"metabolite with higher hydrophilicity, amount",[2]; tumor,7.1%
same,"metabolite with higher hydrophilicity, amount",[2]; urine,18.7%
same,% Internalization compared to the reference,LNCaP cells,9.9±3.2%
